Measurements: patent US20160235778A1, “COMPOSITIONS CONTAINING PUFA, URIDINE AND CHOLINE AND METHODS OF USE THEREOF” (MASSACHUSETTS INSTITUTE OF TECHNOLOGY, priority 2014, published 2016)

Key:
PC-12 cells = assay: 14C-choline incorporation into phospholipids in PC-12 cells; format: cell-based
Protocol: PC-12 cells were maintained in Dulbecco's modified Eagle's medium (DMEM)+10% fetal bovine serum (FBS). For experiments, cells were grown in quintuplicate collagen-coated 35 millimeter (mm) dishes. Cells were incubated for 18 hours (hr) in serum-free DMEM containing 28 μM choline+/−5 micromolar (μM) of DHA, oleic acid, or palmitic acid. Cells were then labeled for 2.5 hr with 0.5 microcurie (μCi)/ml ^14C-choline in serum-free DMEM containing 10-micromolar (μM) choline.
Cells were homogenized in 100 volumes of ice-cold deionized water using a tissue degrader (Polytron PT 10-35, Kinematica AG, Switzerland); 1 ml of aliquots were then mixed with 3 ml of chloroform+methanol mixture (2:1 v/v) and vortexed vigorously for 30 seconds. After cooling for 1 h on ice, the mixture was mixed sequentially with 3 ml of chloroform+methanol mixture (2:1 v/v) and 1 ml of ice-cold deionized water. […] Total phosphorus was determined by comparison with standard curves by using KH2PO4 run with each assay. […] Absorbance was measured spectrophotometrically at 820 nm. Phospholipid mass was determined by multiplying the phosphorus content by 25.
To further characterize the stimulation of phospholipid synthesis by omega-3 fatty acids, PC-12 cells were pre-treated with different doses of DHA and exposed to labeled choline as described in Example 1, then incorporation of ^14C-label into phospholipids was measured. […]

brain CDP-choline = assay: Brain CDP-choline and CDP-ethanolamine levels (HPLC); format: in vivo; details: gerbil
Protocol: FIG. 5A-B. Effects of DHA on brain CDP-choline levels (FIG. 5A) and CDP-ethanolamine levels (FIG. 5B). Groups of 8 gerbils received either a control or a UMP-containing diet, and, by gavage, DHA (in a vehicle of 5% gum Arabic solution) or 5% gum Arabic solution alone for 28 days. On the 29th day brains were harvested and assayed for CDP-choline. Data are presented as means±SEM. Statistical analysis was performed using one- or two-way ANOVA followed by Tukey test. a: P<0.05 when compared with the values for control diet plus vehicle group; b: P<0.05 when compared with values for UMP diet plus vehicle group.
Aliquots (2 ml) of the upper (aqueous) phase were dried under a vacuum, reconstituted, and injected into an HPLC. The dried samples were reconstituted in 100-200 μl water and were analyzed by HPLC on an anion exchange column (Alltech Hypersil APS-2, […], 250×4.6 mm). CDP-choline was eluted with a linear gradient of buffers A (H3PO4, 1.75 mM, pH 2.9) and B (NaH2PO2, 500 mM, pH 4.5) from 0 to 100% B over period of 30 min. With this system, CDP-choline was resolved from closely co-eluting substances such as UMP in an isocratic system over a period of 40 min. The retention time for CDP-choline was 9.5 min. The column was washed with buffer B at the end of each experiment and every several days to remove retained nucleotides. Individual nucleotide peaks were detected by UV absorption at 280 nm and were identified by comparison with the positions of authentic standards, as well as by the addition of nucleotide standards to samples.

Rat hippocampal cells = assay: 14C-choline incorporation into PC in cultured hippocampal neurons; format: cell-based; details: DHA+choline, 14C-choline 2 h, FIG. 10
Protocol: Rat hippocampal cells were cultured for 3 weeks in Neutrobasal plus B27 medium, to reach full maturation. On the day of the experiment, cells were incubated with DMEM+choline, with or without added DHA. ^14C-choline was added, cells were incubated for an additional 2 h, and newly-formed ^14C-labeled PC was extracted and measured as described in Example 1.

[1] = tested on: hippocampal dendritic spines; assay: Hippocampal dendritic spine numbers in pups of treated pregnant and nursing mothers; format: in vivo; details: rat pups, mothers treated 10 days before parturition and 20 days while nursing
Source text: In another study, pregnant rats were allowed to consume ad libitum, for 10 days before parturition and 20 days while nursing, either a choline-containing control diet or this diet supplemented with uridine as UMP; half of each group also received DHA or its diluent daily, by gavage. Pups were then sacrificed and brain slices were examined to determine numbers of hippocampal dendritic spines.

## CCC=CCC=CCC=CCC=CCC=CCC=CCCC(=O)O [DHA, 4,7,10,13,16,19-docosahexaenoic acid]
PC-12 cells; 18 h pre-incubation with 5 μM fatty acid, FIG. 1
  Phosphatidylcholine (PC) synthesis (incorporation of 14C label into PC): significantly increased
PC-12 cells; different doses of DHA, dose-dependent, FIG. 2
  synthesis of phospholipids (incorporation of 14C-label): increased synthesis of phospholipids
Brain CDP-choline; 28 days, compared with UMP-containing diet and DHA's vehicle
  reduction of brain CDP-choline levels in UMP-treated gerbils: 21%
Brain CDP-choline; 28 days, compared with control diet and DHA's vehicle
  reduction of brain CDP-choline levels: 26%
Brain CDP-choline; FIG. 5A
  brain CDP-choline levels, in words: decreased
Brain CDP-choline; FIG. 5B
  brain CDP-ethanolamine levels, in words: decreased
Rat hippocampal cells
  increase in synthesis of phospholipids relative to choline alone (control): more than 2 fold
[1]
  Increase over control (%): 32%
  Number of spines: 70
